Experimental data: patent US6541463B1, “Inhibitors of type 5 and type 3 17β-hydroxysteroid dehydrogenase and methods for their use” (Endorecherche, Inc., priority 1998, dated 2003)

Assays:
[1] = molecular target: T1, androgen receptor (Rattus norvegicus, UniProt P15207); assay: Androgen receptor (AR) assay: inhibition of [3H]R1881 binding, prostate cytosol
T1 construct: from tissue; host or cells: ventral prostate cytosol of gonadectomized male Sprague-Dawley rats
T1 sequence (P15207 1-902): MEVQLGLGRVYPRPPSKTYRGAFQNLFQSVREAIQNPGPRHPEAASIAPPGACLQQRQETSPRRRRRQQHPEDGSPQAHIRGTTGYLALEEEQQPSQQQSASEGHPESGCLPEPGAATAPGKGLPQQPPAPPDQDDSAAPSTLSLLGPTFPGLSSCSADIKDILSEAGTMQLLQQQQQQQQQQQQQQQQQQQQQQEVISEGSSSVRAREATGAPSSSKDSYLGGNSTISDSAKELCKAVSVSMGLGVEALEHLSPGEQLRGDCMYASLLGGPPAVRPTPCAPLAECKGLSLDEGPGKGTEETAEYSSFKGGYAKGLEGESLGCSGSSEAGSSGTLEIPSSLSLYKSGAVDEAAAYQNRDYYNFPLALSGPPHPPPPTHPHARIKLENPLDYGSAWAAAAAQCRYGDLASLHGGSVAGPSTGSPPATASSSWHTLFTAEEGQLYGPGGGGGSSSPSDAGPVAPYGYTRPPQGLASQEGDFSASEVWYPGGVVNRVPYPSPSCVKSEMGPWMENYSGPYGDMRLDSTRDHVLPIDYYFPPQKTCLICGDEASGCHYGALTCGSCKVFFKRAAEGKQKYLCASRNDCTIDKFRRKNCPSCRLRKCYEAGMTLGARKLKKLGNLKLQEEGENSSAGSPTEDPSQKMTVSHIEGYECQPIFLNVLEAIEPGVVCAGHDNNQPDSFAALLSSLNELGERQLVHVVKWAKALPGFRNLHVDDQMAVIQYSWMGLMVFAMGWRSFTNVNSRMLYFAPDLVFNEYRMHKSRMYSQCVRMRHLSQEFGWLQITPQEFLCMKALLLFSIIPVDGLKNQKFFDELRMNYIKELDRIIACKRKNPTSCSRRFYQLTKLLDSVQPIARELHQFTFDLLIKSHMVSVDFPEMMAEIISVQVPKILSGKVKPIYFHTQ
Procedure: The manner in which the percentage of inhibition is determined is described in “Other Tests; D-Androgen Receptor (AR) Assays”. Lower numbers are desirable.
(§1) Male Sprague-Dawley rats (Crl: CD(SD)Br) weighing 200-300 g were obtained from Charles-River Inc. (St-Constant, Québec, Canada). The rats were gonadectomized under general anesthesia (Isoflurane) and killed by cervical dislocation 24 hours later. The ventral prostates were rapidly removed, dissected free from adhering tissue and frozen on dry-ice. Prostates were kept at −80° C. until assay.
All subsequent steps were performed at 0-4° C. Prostates were homogenized in 5 vol (wt/vol) of buffer A (25 mM Tris-HCl, 1.5 mM EDTA disodium salt, 10 mM α-monothioglycerol, 10% glycerol, and 10 mM sodium molybdate, pH 7.4), using a Polytron PT-10 homogenizer (Brinkman Instruments, Canada) at a setting of 5 for three periods of 10 sec, with intervals of 10 sec for cooling. The homogenate was then centrifuged at 105,000×g for 60 min in a Beckman L5-65 ultracentrifuge (Fullerton, Calif.).
Androgen binding was measured using the hydroxylapatite assay (HAP). In brief, the radioactive steroid [^3H]R1881 solubilized in ethanol was diluted into buffer A. Aliquots of prostate cytosol preparation (0.1 ml) were then incubated with 8 nM [^3H]R1881 (0.1 ml, ˜200,000 cpm) in the presence or absence of the indicated concentrations of unlabeled compounds (0.1 ml, prepared in buffer A containing 10% ethanol) for 16-18 h at 0-4° C. […] Unbound steroids were separated by incubation for 40 min at 0-4° C. with 0.3 ml HAP prepared in buffer P (50 mM, Tris-HCl, 10 mM KH2PO4, pH 7.4) as follows: 10 g HAP were washed with buffer P until the supernatant reached a pH of 7.4 and then following centrifugation and decantation of the supernatant, 37.5 ml of buffer P were added. After incubation with HAP and 10 minutes of centrifugation at 1,000×g, the pellet was washed 3 times with 1 ml buffer P. Thereafter, the radioactivity was extracted from the pellet by incubation at room temperature for 60 minutes with 1 ml EtOH. After centrifugation, the supernatant was decanted into a scintillation vial and the pellet was extracted again with ethanol.

[2] = test system: progesterone receptor; assay: Progesterone receptor assay: inhibition of [3H]R5020 binding, uterine cytosol; design: species or system rat
Procedure: The manner in which the percentage of inhibition is determined is described in “Other Tests; E-Progesterone Receptor Assay”. Lower numbers are desirable.
[17α-methyl-^3H]-promegestone (R5020) (84 Ci/mmol) and the corresponding unlabeled compound were purchased from New England Nuclear (Lachine, Québec, Canada). All other chemicals were of analytical grade.
Stock solutions of the unlabeled steroids were kept at 4° C. in ethanol. The desired steroid solutions were then prepared by appropriate dilution in buffer B (10 mM Tris-HCl, 1.5 mM EDTA, 10 mM α-monothioglycerol, pH 7.4) containing 30% ethanol.
as §1, with “Female” for “Male”, “rats” for “rats (Crl: CD(SD)Br)”, “uteri are” for “ventral prostates were”, “Tissues” for “Prostates”, “use.” for “assay.”
All procedures were performed at 4° C. Tissues were pulverized frozen in dry ice with a Thermovac pulverizer. The samples were then homogenized in 10 vol (w/v) of buffer A (25 mM Tris-HCl, 1.5 mM EDTA, 10 mM α-monothioglycerol, 10% glycerol, 10 mM sodium molybdate, pH 7.4) using a Polytron PT-10 homogenizer (Brinkmann Instruments, Canada) at a setting of 5 for two periods of 10 sec, with intervals of 10 sec for cooling. The homogenate was then centrifuged at 105,000×g for 90 min. The supernatant was used immediately for assay.
Progesterone binding was measured using the dextran-coated charcoal adsorption technique. […] Each concentration was done in triplicate. Assay was ended with 300 μl of DCC (1% Norit A and 0.1% Dextran T-70 in Buffer B). After 10 min of incubation, tubes were centrifuged at 2,000×g for 10 min. and decanted in vials with 6 ml of BCS liquid scintillation (New England Nuclear, Dupont). The radioactivity was measured in a Beckman counter at a counting efficiency of 35%.

Row | SMILES | % Inhibition Androgen Receptor ([1]; E^−6) [%] | % Inhibition Androgen Receptor ([1]; E^−8) [%] | % Inhibition Progesterone Receptor ([2]; E^−6) [%] | % Inhibition Progesterone Receptor ([2]; E^−8) [%] | inhibition at 0.01 µM ([1]; Table 4′, E^−8) [%] | % Inhibition Progesterone Receptor E^−6 ([2]; Table 4′, E^−6) [%] | % Inhibition Progesterone Receptor E^−8 ([2]; Table 4′, E^−8) [%] | inhibition at 1 µM ([1]; Table 4′, E^−6) [%] | further results
1 | CC(=O)[C@@]1(OC(=O)CCCCF)CCC2C3C=C(C)C4=CC(=O)CC[C@]4(C)C3CC[C@@]21C (stereo partly shown) [EM-1195-CS] | 62 | 1 | 70 | 0 | – | – | – | – | –
2 | CC1CCC2(CCC3C4CCc5cc(O)c([N+](=O)[O-])cc5C4CCC32C)OC1=O [EM-1131, 2-Nitro-1,3,5(10)-estratrien-3-ol-17(R)-spiro-2′-(5′-methyl-6′-oxo)tetrahydropyran] | – | – | – | – | 2 | 10 | 2 | – | % Inhibition Androgen Receptor E^−6 ([1]; Table 4′, E^−6): 1%
3 | COc1ccc2c(c1)C(=O)CC1C3CCC4(CCC(C)(C)C(=O)O4)C3(C)CCC21O (stereo not shown) [EM-1386] | – | – | – | – | 0 | 0 | 0 | 0 | –
4 | CCS(=O)(=O)Oc1ccc2c(c1)CCC1C2CCC2(C)C1CCC21CCC(C)(C)C(=O)O1 (stereo not shown) [EM-1364-CS] | – | – | – | – | 0 | 0 | 0 | 0 | –
5 | COc1c(Br)cc2c(c1Br)CCC1C2CCC2(C)C1CCC21CCC(C)(C)C(=O)O1 (stereo not shown) [EM-1385-CS] | – | – | – | – | 0 | 2 | 2 | 0 | –
6 | CC(=O)O[C@]1(C(=O)N(C)C)CCC2C3C=C(C)C4=CC(=O)CC[C@]4(C)C3CC[C@@]21C (stereo partly shown) [EM-1159] | 1 | 1 | 4 | 2 | – | – | – | – | –
7 | C[C@]12CCC(=O)C=C1C=C[C@@H]1[C@@H]2CC[C@]2(C)C(=O)C3(CC4CC4C3)C[C@@H]12 (stereo partly shown) [EM-1299, 4,6-Androstadien-3,17-dione-16-spirobicyclo[3′.1′.0′]-hexane] | – | – | – | – | – | – | – | – | % Inhibition Androgen Receptor E^−6 ([1]; E^−6): 3%; % Inhibition Androgen Receptor E^−8 ([1]; E^−8): 1%; % Inhibition Progesterone Receptor E^−6 ([2]; E^−6): 0%; % Inhibition Progesterone Receptor E^−8 ([2]; E^−8): 0%
8 | CSCCOc1ccc2c(c1)CCC1C2CCC2(C)C1CCC21CCCC(=O)O1 [CS-242, 3-Methylthioethyloxy-1,3,5(10)-estratrien-17(R)-spiro-2′-(6′-oxo) Tetrahydropyran] | – | – | – | – | 0 | 0 | 0 | 0 | –
9 | COc1ccc(CC(=O)O[C@]2(C(C)=O)CCC3C4C=C(C)C5=CC(=O)C=C[C@]5(C)C4CC[C@@]32C)cc1 (stereo partly shown) [EM-1291] | 0 | 0 | 33 | 0 | – | – | – | – | –
10 | C[C@]12CCC3c4cc([N+](=O)[O-])c(O)cc4CCC3C1CC[C@@]21CCCC(=O)O1 (stereo partly drawn) [EM-1124, 2-Nitro-1,3,5(10)-estraetriene-3-ol-17(R)-spiro-2′-(6′-oxo)tetrahydropyran] | – | – | – | – | 1 | 20 | 1 | 7 | –
